pIC50: −log10 of the molar value.
How the values were obtained:
[1] = Inhibition of Phosphodiesterase 5
[2] = Inhibition of Phosphodiesterase 5; remark: listed apart in the source

| Structure (SMILES) | pIC50 [1] | pIC50 [2] |
| --- | --- | --- |
| COc1cc2c3c(n1)C(c1ccccc1)=N[C@@H](NC(=O)c1cccnc1)C(=O)N3CC2 | < 4.00 |  |
| COc1cc2c3c(n1)C(c1ccccc1)=NCC(=O)N3CC2 [4-Methoxy-6-phenyl-1,2-dihydro-8H-5,7,9a-triaza-benzo[cd]azulen-9-one] | 4.04 |  |
| COc1cc2c3c(n1)C(c1ccccc1)=NC(NC(=O)c1cccnc1)C(=O)N3CC2 (centres undefined) [N-(4-methoxy-9-oxo-6-phenyl-1,2,8,9-tetrahydro-5,7,9a-triazabenzo[cd]azulen-8-yl)nicotinamide] | < 4.00 | 4.02 |

From BindingDB's records for doi:10.1016/j.bmcl.2004.03.067 (Pfizer, 2004)
